Results as given in patent publication US20100099693A1, “NEW COMBINATION FOR USE IN THE TREATMENT OF INFLAMMATORY DISORDERS” (priority 2007, published 2010).

Columns and labels:
[1] = tested on: Rat aortic smooth muscle cells (RASMC); test: Rat aortic smooth muscle cell proliferation assay (WST-1 reagent, 5% FBS stimulated); type: cell-based; conditions: single drug, 48 hours, F-12/5% FBS; for inhibition at 0.1 µM: final concentration 0.1 μM; for inhibition at 0.1 µM / inhibition at 1 µM / inhibition at 10 µM: mean n=3; for inhibition at 1 µM: final concentration 1 μM; for inhibition at 10 µM: final concentration 10 μM
Method: Rat aortic smooth muscle cells (RASMC) were isolated as previously described (Hellin et al, Arterioscler. Thromb. Vasc. Biol., 17, 1977 (1997)). The cells were cultired (37° C./5% CO2) in Ham's medium F-12 supplemented with 10% fetal bovine serum (FBS), 50 μg/mL L-ascorbic acid, 50 μg/mL streptomycin and 50 IU/mL penicillin (F-12/10% FBS), grown to confluence, serially passaged by trypsinization, and used in experiments after 2-7 passages. The RASMC were seeded in 96-well plates at a density of approximately 5×10^3 cells per well in F-12/10% FBS (100 μl per well). After 72 hours, the cells were synchronized in G0/G1 phase by starvation in Ham's medium F-12 supplemented with 0.1% bovine serum albumin (BSA), 50 μg/mL L-ascorbic acid, 50 μg/mL streptomycin and 50 IU/mL penicillin (F-12/0.1% BSA) for 48 hours. After the starvation, the cells were 70-80% confluent. The experiment was then started by changing to F-12 medium containing 5% FBS, 50 μg/mL L-ascorbic acid, 50 μg/mL streptomycin and 50 IU/mL penicillin (F-12/5% FBS), without (positive control cells) or with the test drugs (drug treated cells) as described below. For comparison, some cells remained in F-12/0.1% BSA (negative control cells).
Proliferation of the RASMC cells was measured using the Cell Proliferation Reagent WST-1 (Roche Diagnostics Scandinavia AB, Bromma, Sweden). The WST-1 reagent is designed to be used for spectrophotometric quantification of e.g. cell growth in proliferation assays and was used according to the manufacturers' instructions. The wavelength for measuring absorbance was 450 nm and the absorbance of all untreated positive control cells exposed to the WST-1 reagent was between 1 and 2.7.
Stock solutions of ramatroban (sodium salt; see Example 19 above) and rosuvastatin (sodium salt; see Example 19 above) were made in sterile saline.
48 hours after start of the experiment as described above, the mean positive control RASMC proliferation (measured using the WST-1 reagent) was 225% of that of the negative control RASMC (n=12 in both groups). The effects of ramatroban and/or rosuvastatin (added to cells in F-12/5% FBS at the start of the experiment) on RASMC proliferation were studied 48 hours after start of the experiment.
The procedure described in Example 22 was repeated for atorvastatin (sodium salt; see Example 20 above).
The procedure described in Example 22 was repeated for simvastatin (sodium salt; see Example 21 above).

MonoMac-6 (MM6) cells = test: MonoMac-6 macrophage proliferation assay (WST-1 reagent); type: cell-based, human; conditions: single drug, 48 hours; for inhibition at 100 µM / inhibition at 10 µM / inhibition at 30 µM: Homo sapiens, MONO-MAC-6, WST-1, mean n=4; for inhibition at 100 µM: final concentration 100 μM; for inhibition at 10 µM: final concentration 10 μM; for inhibition at 30 µM: final concentration 30 μM
Method: Cells from the human macrophage cell-line MonoMac-6 (MM6) (Ziegler-Heitbrock et al, Int. J. Cancer, 41, 456 (1988)) were cultured (37° C./5% CO2) in RPMI-1640 medium supplemented with 1 mM sodium pyruvate, 1× nonessential amino acids, 1-100 μg/mL insulin, 1 mM oxalacetic acid, 100 units/mL penicillin, 100 μg/mL streptomycin and 10% (v/v) fetal bovine serum. At the start of the experiment, MM6 cells were seeded in 96-well plates at a density of 1×10^5 cells/mL (100 μl per well). Proliferation of the MM6 cells was measured using the Cell Proliferation Reagent WST-1 (Roche Diagnostics Scandinavia AB, Bromma, Sweden) or by cell counting using a microscope. The WST-1 reagent is designed to be used for spectrophotometric quantification of e.g. cell growth in proliferation assays and was used according to the manufacturers' instructions. The wavelength for measuring absorbance was 450 nm and the absorbance of all untreated control cells exposed to the WST-1 reagent was between 1.0 and 2.5. Stock solutions of ramatroban (sodium salt; ramatroban was purchased from Cayman Chemical, Ann Arbor, Mich., USA as free acid and converted to sodium salt by adding one equivalent of aqueous NaOH) and rosuvastatin (sodium salt; rosuvastatin was extracted and purified from commercially available Crestor® tablets and isolated as sodium salt as described in Bioorganic & Medicinal Chemistry, Vol. 5, No. 5, pp 437-444, 1997) were made in sterile saline.
The effects of ramatroban and/or rosuvastatin (added at the start of the experiments) on MM6 cell proliferation were studied 48 hours after start of the experiments using the WST-1 reagent described above.
The procedure described in Example 19 was repeated for atorvastatin (sodium salt; received as atorvastatin calcium as a gift from Biocon, Ltd., Bangalore, India and converted into sodium salt by firstly converting the calcium salt into the free acid by addition of aqueous hydrochloric acid and then, after isolation via extraction, adding one equivalent of aqueous NaOH).
The procedure described in Example 19 was repeated for simvastatin (sodium salt; simvastatin was received as the lactone as a gift from Biocon, Ltd., Bangalore, India and isolated as the sodium salt following lactone ring opening via hydrolysis using one equivalent of NaOH in water and ethanol at 60° C.).

Compound | inhibition at 100 µM ([1]; final concentration 100 μM, mean n=6) [%] | inhibition at 100 µM (MonoMac-6 (MM6) cells) [%] | effect on MM6 proliferation (in words) (MonoMac-6 (MM6) cells; 10 μM, data not shown) | inhibition at 0.1 µM [1] [%] | inhibition at 1 µM [1] [%] | inhibition at 10 µM [1] [%] | inhibition at 10 µM (MonoMac-6 (MM6) cells) [%] | inhibition at 30 µM (MonoMac-6 (MM6) cells) [%]
O=C(O)CCn1c2c(c3ccccc31)C[C@H](NS(=O)(=O)c1ccc(F)cc1)CC2 [ramatroban] | 11.9 | 15.2 | effect similar to that of 100 μM of ramatroban |  |  |  |  | 
CC(C)c1c(C(=O)Nc2ccccc2)c(-c2ccccc2)c(-c2ccc(F)cc2)n1CC[C@@H](O)C[C@@H](O)CC(=O)O [atorvastatin] |  | 71.7 |  | 27.4 | 0 | 18.9 | 16.8 | 27.8
CCC(C)(C)C(=O)O[C@H]1C[C@@H](C)C=C2C=C[C@H](C)[C@H](CC[C@@H]3C[C@@H](O)CC(=O)O3)[C@H]21 [simvastatin] |  | 85 |  | 23.8 | 0 | 74.3 | 21.3 | 68.1
CC(C)c1nc(N(C)S(C)(=O)=O)nc(-c2ccc(F)cc2)c1/C=C/[C@@H](O)C[C@@H](O)CC(=O)O [rosuvastatin] |  | 70.1 |  | 5.3 | 0 | 21.7 | 11.5 | 31.2
